In patent US6930098B2, “Use of polysulphated cyclodextrins for treating osteoarthritis” (Universiteit Gent, priority 2000, dated 2005):

Tested on: Human articular chondrocytes
Assay: Synthesis of extracellular aggrecans by chondrocytes cultured in agarose gel (35S incorporation)
Type: cell-based
Conditions: 2.5 μg/ml, 48 hours with Na2 35SO4 after culturing for two weeks; for Amount of 35S-aggrecans associated with the cells: cell-associated fraction; for Amount of 35S-aggrecans in the medium: incubation medium fraction; for Amount of 35S-aggrecans in the interterritorial matrix: interterritorial matrix fraction
Protocol: Evaluation of the in vitro effects of polysulphated cyclodextrins on the synthesis of extracellular aggrecans by chondrocytes.
Human articular chondrocytes are isolated according to the methods described by W. T. Green Jr (Clin. Orthop., 1971, 75, 248-260) and K. E. Kuettner et al. (J. Cell. Biol., 1982, 93, 743-750).
The chondrocytes are then cultured in agarose gel, in accordance with the method described by P. D. Benya et al. (Cell., 1982, 30, 215-224) and modified according to M. Cornelissen et al. (J. Tiss. Cult. Meth., 1993, 15, 139-146) and according to G. Verbruggen et al. (Clin. Exp. Rheumatol, 1990, 8, 371-378).
Synthesis of aggrecans: This is measured by determining the incorporation of 35S, supplied by a radioactive precursor, sodium sulphate Na2^35SO4. After culturing for two weeks, 10 μCi/ml of the radio-labelled precursor are introduced into the culture medium for 48 hours, as well as the compounds under test (polysulphated α-, β- and γ-cyclodextrins) or the reference compounds (chondroitin sulphate and polysulphate) at an end concentration of 2.5 μg/ml.
The newly synthesised ^35S-aggrecans accumulate partly in the intercellular agarose medium or are released into the incubation medium.
At the end of the incubation period, the agarose gel is broken up mechanically and is then digested with 3 ml of a 50 U/ml solution of […] in a 0.067M phosphate buffer at pH 6.0, in the presence of proteinase inhibitors.
The suspension thereby obtained is centrifuged; the supernatant, which comprises the ^35S-aggrecans of the interterritorial matrix, and the incubation medium, comprising the metabolites of ^35S-aggrecans released into the extracellular matrix, are combined for subsequent chromatography.
The centrifuged pellet, comprising the chondrocytes and the ^35S-aggrecans associated therewith, is treated for 48 hours with 1 ml of a 4.0M solution of guanidinium chloride in a 0.05M acetate buffer at pH 5.8 comprising the proteinase inhibitors. The objective of this operation is to extract the ^35S-aggrecans associated with the cells. The solution obtained is centrifuged to separate the cells from the supernatant, which is separated off for subsequent chromatography. The chromatography operations on the various fractions obtained are carried out on Sephadex G25 gel in a pH 6.8 phosphate buffer containing 0.01M Na2SO4, so as to separate the ^35S-aggrecans from the free Na2^35SO4.
The radioactivity of each of the macromolecular eluates obtained is measured and related to the number of chondrocytes contained in the initial culture and is expressed in terms of pg of SO4 incorporated into the aggrecans, per million chondrocytes and per hour.

| Substance | Amount of 35S-aggrecans associated with the cells | Amount of 35S-aggrecans in the medium | Amount of 35S-aggrecans in the interterritorial matrix |
| --- | --- | --- | --- |
| chondroitin polysulphate [CPS, reference compound] | 1392 pg of SO4 incorporated into the aggrecans, per million chondrocytes and per hour | 2519 pg of SO4 incorporated into the aggrecans, per million chondrocytes and per hour | 6446 pg of SO4 incorporated into the aggrecans, per million chondrocytes and per hour |
| chondroitin sulphate [CS, reference compound] | 1373 pg of SO4 incorporated into the aggrecans, per million chondrocytes and per hour | 2187 pg of SO4 incorporated into the aggrecans, per million chondrocytes and per hour | 6589 pg of SO4 incorporated into the aggrecans, per million chondrocytes and per hour |
| polysulphate β-cyclodextrin [β CD] | 2262 pg of SO4 incorporated into the aggrecans, per million chondrocytes and per hour | 1658 pg of SO4 incorporated into the aggrecans, per million chondrocytes and per hour | 6232 pg of SO4 incorporated into the aggrecans, per million chondrocytes and per hour |
| polysulphated α-cyclodextrin [α CD] | 1315 pg of SO4 incorporated into the aggrecans, per million chondrocytes and per hour | 1589 pg of SO4 incorporated into the aggrecans, per million chondrocytes and per hour | 8036 pg of SO4 incorporated into the aggrecans, per million chondrocytes and per hour |
| polysulphated γ-cyclodextrin [γ CD] | 2907 pg of SO4 incorporated into the aggrecans, per million chondrocytes and per hour | 3873 pg of SO4 incorporated into the aggrecans, per million chondrocytes and per hour | 8232 pg of SO4 incorporated into the aggrecans, per million chondrocytes and per hour |
